Assays:
Assay type in all cases: in vivo
monochoria (Mo) [1] = assay: Test Example 1: herbicidal effects by flooded paddy field treatment; design: herbicidal effects, Mo (monochoria):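 0-5 growth inhibition grade; 5 = over 90%; 4 = 70-90%; 3 = 50-70%; 2 = 30-50%; 1 = 10-30%; 0 = under 10%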; conditions: dose 100 g active ingredient per 10 ares, examined on the 21st day after treatment, standards of Table 44
Outline: (§1)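 Pots hold puddled paddy soil; seeds are sown and the pots flooded 3 cm deep. Next day, diluted wettable powder goes dropwise onto the water at a dose of 100 g active ingredient per 10 ares, and herbicidal effects are rated after 21 days in a greenhouse.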

barnyard grass (Ec) = assay: Test Example 2: herbicidal effects by upland soil treatment; design: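 0-5 growth inhibition grade; 5 = over 90%; 4 = 70-90%; 3 = 50-70%; 2 = 30-50%; 1 = 10-30%; 0 = under 10%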; conditions: dose 100 g active ingredient per 10 ares, examined on the 21st day after treatment
Outline: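 Pre-emergence test: barnyard grass and green foxtail sown in upland soil, then soil surface sprayed with wettable-powder formulation at 100 g active ingredient per 10 ares (100 l per 10 ares). Grown in greenhouse; herbicidal effect scored on a rating scale 21 days after treatment.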

barnyard grass (Eo) [2] = assay: Test Example 1: herbicidal effects by flooded paddy field treatment; design: herbicidal effects, Eo (barnyard grass):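 0-5 growth inhibition grade; 5 = over 90%; 4 = 70-90%; 3 = 50-70%; 2 = 30-50%; 1 = 10-30%; 0 = under 10%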; conditions: dose 100 g active ingredient per 10 ares, examined on the 21st day after treatment, standards of Table 44
Outline: as §1

barnyard grass (Eo) [3] = assay: Test Example 4: selectivity for a crop plant by flooded paddy field treatment; design: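 0-5 growth inhibition grade; 5 = over 90%; 4 = 70-90%; 3 = 50-70%; 2 = 30-50%; 1 = 10-30%; 0 = under 10%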; conditions: barnyard grass, dose 25 gai/10a, 21st day after treatment, index per Table 44
Experimental: (§2) In a 100 cm^2 plastic pot, a paddy field soil was filled and paddled. Then, seeds of barnyard grass (Eo) and monochoria (Mo) were sown, and rice (Or) of second leaf stage was transplanted, and water was introduced to a depth of 3 cm. Next day, a wettable powder prepared in accordance with Formulation Example 1 was diluted with water and dropwise applied to the water surface. The dose was 25 g of the active ingredient per 10 ares. Thereafter, cultivation was carried out in a green house, and on the 21st day after the treatment, the herbicidal effects were examined in accordance with the standards of Table 44.

monochoria (Mo) [4] = assay: as above; design: scale not given here; conditions: monochoria, dose 25 gai/10a, 21st day after treatment, index per Table 44
Experimental: as §2

rice (Or) = assay: as above; design: scale not given here; conditions: rice transplanted at second leaf stage, dose 25 gai/10a, 21st day after treatment, index per Table 44
Experimental: as §2

CN(C(=O)Cc1ccc(F)cc1)C(c1cccs1)c1cncnc1C(F)(F)F (racemic) [1-234]
herbicidal effects, Mo (monochoria) (monochoria (Mo) [1]): 5
Ec (herbicidal effects, index) (barnyard grass (Ec)): 5
herbicidal effects, Eo (barnyard grass) (barnyard grass (Eo) [2]): 5
Eo (herbicidal effect index) (barnyard grass (Eo) [3]): 5
Mo (herbicidal effect index) (monochoria (Mo) [4]): 5
Or (herbicidal effect index on crop) (rice (Or)): 1

CN(C(=O)Cc1ccc(C(F)(F)F)cc1)C(c1ccccc1)c1cncnc1C(F)(F)F (racemic) [1-306]
herbicidal effects, Mo (monochoria) (monochoria (Mo) [1]): 5
Ec (herbicidal effects, index) (barnyard grass (Ec)): 5
herbicidal effects, Eo (barnyard grass) (barnyard grass (Eo) [2]): 5
Eo (herbicidal effect index) (barnyard grass (Eo) [3]): 5
Mo (herbicidal effect index) (monochoria (Mo) [4]): 5
Or (herbicidal effect index on crop) (rice (Or)): 1

CCN(C(=O)Cc1ccc(Cl)cc1F)C(c1cncnc1C(F)(F)F)C(C)C (racemic) [1-321]
herbicidal effects, Mo (monochoria) (monochoria (Mo) [1]): 5
Ec (herbicidal effects, index) (barnyard grass (Ec)): 5
herbicidal effects, Eo (barnyard grass) (barnyard grass (Eo) [2]): 5
Eo (herbicidal effect index) (barnyard grass (Eo) [3]): 5
Mo (herbicidal effect index) (monochoria (Mo) [4]): 5
Or (herbicidal effect index on crop) (rice (Or)): 1

CC(C)C(c1cncnc1C(F)(F)F)N(C)C(=O)C(C)(C)c1ccc(Cl)cc1 (racemic) [1-329]
herbicidal effects, Mo (monochoria) (monochoria (Mo) [1]): 5
Ec (herbicidal effects, index) (barnyard grass (Ec)): 5
herbicidal effects, Eo (barnyard grass) (barnyard grass (Eo) [2]): 5
Eo (herbicidal effect index) (barnyard grass (Eo) [3]): 5
Mo (herbicidal effect index) (monochoria (Mo) [4]): 5
Or (herbicidal effect index on crop) (rice (Or)): 1

CC(C)C(c1cncnc1C(F)(F)F)N(C)C(=O)Cc1cc(F)c(F)c(F)c1 (racemic) [1-418]
herbicidal effects, Mo (monochoria) (monochoria (Mo) [1]): 5
Ec (herbicidal effects, index) (barnyard grass (Ec)): 5
herbicidal effects, Eo (barnyard grass) (barnyard grass (Eo) [2]): 5
Eo (herbicidal effect index) (barnyard grass (Eo) [3]): 5
Mo (herbicidal effect index) (monochoria (Mo) [4]): 5
Or (herbicidal effect index on crop) (rice (Or)): 1

CCN(C(=O)N(C)C(c1cncnc1C(F)(F)F)C(C)C)c1ccccc1 (racemic) [1-425]
herbicidal effects, Mo (monochoria) (monochoria (Mo) [1]): 5
Ec (herbicidal effects, index) (barnyard grass (Ec)): 5
herbicidal effects, Eo (barnyard grass) (barnyard grass (Eo) [2]): 5
Eo (herbicidal effect index) (barnyard grass (Eo) [3]): 5
Mo (herbicidal effect index) (monochoria (Mo) [4]): 5
Or (herbicidal effect index on crop) (rice (Or)): 1

CCC(c1cncnc1C(C)C)N(C)C(=O)Cc1ccc(C)cc1 (racemic) [1-439]
herbicidal effects, Mo (monochoria) (monochoria (Mo) [1]): 5
Ec (herbicidal effects, index) (barnyard grass (Ec)): 5
herbicidal effects, Eo (barnyard grass) (barnyard grass (Eo) [2]): 5
Eo (herbicidal effect index) (barnyard grass (Eo) [3]): 5
Mo (herbicidal effect index) (monochoria (Mo) [4]): 5
Or (herbicidal effect index on crop) (rice (Or)): 1

Cc1ccc(CC(=O)N(C)C(c2ccsc2)c2cncnc2C(F)(F)F)cc1 (racemic) [1-443]
herbicidal effects, Mo (monochoria) (monochoria (Mo) [1]): 5
Ec (herbicidal effects, index) (barnyard grass (Ec)): 5
herbicidal effects, Eo (barnyard grass) (barnyard grass (Eo) [2]): 5
Eo (herbicidal effect index) (barnyard grass (Eo) [3]): 5
Mo (herbicidal effect index) (monochoria (Mo) [4]): 5
Or (herbicidal effect index on crop) (rice (Or)): 1

CC(C)C(c1cncnc1C(F)(F)F)N(C)C(=O)Cc1cc(F)cc(F)c1F (racemic) [1-444]
herbicidal effects, Mo (monochoria) (monochoria (Mo) [1]): 5
Ec (herbicidal effects, index) (barnyard grass (Ec)): 5
herbicidal effects, Eo (barnyard grass) (barnyard grass (Eo) [2]): 5
Eo (herbicidal effect index) (barnyard grass (Eo) [3]): 5
Mo (herbicidal effect index) (monochoria (Mo) [4]): 5
Or (herbicidal effect index on crop) (rice (Or)): 1

CCCc1ncncc1C(C(C)C)N(C)C(=O)Cc1ccc(C)cc1 (racemic) [1-448]
herbicidal effects, Mo (monochoria) (monochoria (Mo) [1]): 5
Ec (herbicidal effects, index) (barnyard grass (Ec)): 5
herbicidal effects, Eo (barnyard grass) (barnyard grass (Eo) [2]): 5
Eo (herbicidal effect index) (barnyard grass (Eo) [3]): 5
Mo (herbicidal effect index) (monochoria (Mo) [4]): 5
Or (herbicidal effect index on crop) (rice (Or)): 1

CON=CC(c1cncnc1C(C)C)N(C)C(=O)Cc1ccc(C)cc1 (racemic) [1-465]
herbicidal effects, Mo (monochoria) (monochoria (Mo) [1]): 5
Ec (herbicidal effects, index) (barnyard grass (Ec)): 5
herbicidal effects, Eo (barnyard grass) (barnyard grass (Eo) [2]): 5
Eo (herbicidal effect index) (barnyard grass (Eo) [3]): 5
Mo (herbicidal effect index) (monochoria (Mo) [4]): 5
Or (herbicidal effect index on crop) (rice (Or)): 0

Cc1ccc(CC(=O)N(CC#N)C(c2cncnc2C(F)(F)F)C(C)C)cc1 (racemic) [1-483]
herbicidal effects, Mo (monochoria) (monochoria (Mo) [1]): 5
Ec (herbicidal effects, index) (barnyard grass (Ec)): 5
herbicidal effects, Eo (barnyard grass) (barnyard grass (Eo) [2]): 5
Eo (herbicidal effect index) (barnyard grass (Eo) [3]): 5
Mo (herbicidal effect index) (monochoria (Mo) [4]): 5
Or (herbicidal effect index on crop) (rice (Or)): 1

COc1ccc(C(c2cncnc2C(F)(F)F)N(C)C(=O)Cc2ccc(F)cc2)cc1 (racemic) [1-485]
herbicidal effects, Mo (monochoria) (monochoria (Mo) [1]): 5
Ec (herbicidal effects, index) (barnyard grass (Ec)): 5
herbicidal effects, Eo (barnyard grass) (barnyard grass (Eo) [2]): 5
Eo (herbicidal effect index) (barnyard grass (Eo) [3]): 5
Mo (herbicidal effect index) (monochoria (Mo) [4]): 5
Or (herbicidal effect index on crop) (rice (Or)): 1

CCCc1ncncc1C(CCC)N(C)C(=O)Cc1ccc(C)cc1 (racemic) [1-495]
herbicidal effects, Mo (monochoria) (monochoria (Mo) [1]): 5
Ec (herbicidal effects, index) (barnyard grass (Ec)): 5
herbicidal effects, Eo (barnyard grass) (barnyard grass (Eo) [2]): 5
Eo (herbicidal effect index) (barnyard grass (Eo) [3]): 5
Mo (herbicidal effect index) (monochoria (Mo) [4]): 5
Or (herbicidal effect index on crop) (rice (Or)): 0

CON=Cc1ncncc1C(C(C)C)N(C)C(=O)Cc1ccc(Cl)cc1 (racemic) [1-498]
herbicidal effects, Mo (monochoria) (monochoria (Mo) [1]): 5
Ec (herbicidal effects, index) (barnyard grass (Ec)): 5
herbicidal effects, Eo (barnyard grass) (barnyard grass (Eo) [2]): 5
Eo (herbicidal effect index) (barnyard grass (Eo) [3]): 5
Mo (herbicidal effect index) (monochoria (Mo) [4]): 5
Or (herbicidal effect index on crop) (rice (Or)): 0

COC(C)(OC)C(c1cncnc1C(C)C)N(C)C(=O)Cc1ccc(Cl)cc1 (racemic) [1-511]
herbicidal effects, Mo (monochoria) (monochoria (Mo) [1]): 5
Ec (herbicidal effects, index) (barnyard grass (Ec)): 4
herbicidal effects, Eo (barnyard grass) (barnyard grass (Eo) [2]): 5
Eo (herbicidal effect index) (barnyard grass (Eo) [3]): 5
Mo (herbicidal effect index) (monochoria (Mo) [4]): 5
Or (herbicidal effect index on crop) (rice (Or)): 0

C=CCN(C(=O)Cc1ccc(Cl)cc1)C(c1cncnc1C(F)(F)F)C(C)C (racemic) [1-520]
herbicidal effects, Mo (monochoria) (monochoria (Mo) [1]): 5
Ec (herbicidal effects, index) (barnyard grass (Ec)): 5
herbicidal effects, Eo (barnyard grass) (barnyard grass (Eo) [2]): 5
Eo (herbicidal effect index) (barnyard grass (Eo) [3]): 5
Mo (herbicidal effect index) (monochoria (Mo) [4]): 5
Or (herbicidal effect index on crop) (rice (Or)): 1

C=CCN(C(=O)Cc1ccc(C)cc1)C(c1cncnc1C(F)(F)F)C(C)C (racemic) [1-521]
herbicidal effects, Mo (monochoria) (monochoria (Mo) [1]): 5
Ec (herbicidal effects, index) (barnyard grass (Ec)): 5
herbicidal effects, Eo (barnyard grass) (barnyard grass (Eo) [2]): 5
Eo (herbicidal effect index) (barnyard grass (Eo) [3]): 5
Mo (herbicidal effect index) (monochoria (Mo) [4]): 5
Or (herbicidal effect index on crop) (rice (Or)): 1

C#CCN(C(=O)N(C)C(c1cncnc1C(F)(F)F)C(C)C)c1ccc(F)cc1 (racemic) [1-533]
herbicidal effects, Mo (monochoria) (monochoria (Mo) [1]): 5
Ec (herbicidal effects, index) (barnyard grass (Ec)): 5
herbicidal effects, Eo (barnyard grass) (barnyard grass (Eo) [2]): 5
Eo (herbicidal effect index) (barnyard grass (Eo) [3]): 5
Mo (herbicidal effect index) (monochoria (Mo) [4]): 5
Or (herbicidal effect index on crop) (rice (Or)): 1

CN(C(=O)Cc1ccc(Cl)cc1)C(c1ccccc1F)c1cncnc1C(F)(F)F (racemic) [1-548]
herbicidal effects, Mo (monochoria) (monochoria (Mo) [1]): 5
Ec (herbicidal effects, index) (barnyard grass (Ec)): 5
herbicidal effects, Eo (barnyard grass) (barnyard grass (Eo) [2]): 5
Eo (herbicidal effect index) (barnyard grass (Eo) [3]): 5
Mo (herbicidal effect index) (monochoria (Mo) [4]): 5
Or (herbicidal effect index on crop) (rice (Or)): 1

Cc1ccc(CC(=O)N(C)C(c2ccccc2F)c2cncnc2C(F)(F)F)cc1 (racemic) [1-549]
herbicidal effects, Mo (monochoria) (monochoria (Mo) [1]): 5
Ec (herbicidal effects, index) (barnyard grass (Ec)): 5
herbicidal effects, Eo (barnyard grass) (barnyard grass (Eo) [2]): 5
Eo (herbicidal effect index) (barnyard grass (Eo) [3]): 5
Mo (herbicidal effect index) (monochoria (Mo) [4]): 5
Or (herbicidal effect index on crop) (rice (Or)): 0

Cc1ccccc1C(c1cncnc1C(F)(F)F)N(C)C(=O)Cc1ccc(F)cc1 (racemic) [1-551]
herbicidal effects, Mo (monochoria) (monochoria (Mo) [1]): 5
Ec (herbicidal effects, index) (barnyard grass (Ec)): 5
herbicidal effects, Eo (barnyard grass) (barnyard grass (Eo) [2]): 5
Eo (herbicidal effect index) (barnyard grass (Eo) [3]): 5
Mo (herbicidal effect index) (monochoria (Mo) [4]): 5
Or (herbicidal effect index on crop) (rice (Or)): 0

Cc1ccc(CC(=O)N(C)C(c2ccccc2C)c2cncnc2C(F)(F)F)cc1 (racemic) [1-553]
herbicidal effects, Mo (monochoria) (monochoria (Mo) [1]): 5
Ec (herbicidal effects, index) (barnyard grass (Ec)): 5
herbicidal effects, Eo (barnyard grass) (barnyard grass (Eo) [2]): 5
Eo (herbicidal effect index) (barnyard grass (Eo) [3]): 5
Mo (herbicidal effect index) (monochoria (Mo) [4]): 5
Or (herbicidal effect index on crop) (rice (Or)): 1
